From US8629147B2, “Heterocyclic compounds useful in the treatment of neoplastic diseases, inflammatory disorders and immunomodulatory disorders” (ChemBridge Corporation, priority 2005, dated 2014)

What was measured:
[1] = target: T1, recombinant TrkA kinase domain (Homo sapiens, UniProt P04629); test: TrkA tyrosine kinase activity inhibition, Alphascreen phosphotyrosine PT66 assay; format: biochemical; settings: compounds 10 to 0.005 μM, 1 hour incubation
T1 construct: commercial preparation of recombinant TrkA kinase domain; purchased Upstate Cell Signaling 14-571
Experimental: Inhibition of TrkA tyrosine kinase activity was measured using the Alphascreen phosphotyrosine PT66 assay kit (Perkin Elmer Life Sciences, Catalog Number 6760602) according to the manufacturer's instructions. As a source of enzymatically active TrkA kinase for this assay, the commercial preparation of recombinant TrkA kinase domain (Upstate Cell Signaling, Catalog Number 14-571) was used. Biotinylated poly Glu-Tyr 4:1 (CIS bio-international, catalog number 61GT0BLA) was used for the kinase substrate. Compounds were serially diluted to give a concentration range from 10 to 0.005 μM and co-incubated with TrkA kinase, biotinylated peptide substrate and Alphascreen kit components for 1 hour and then read in a Perkin-Elmer Alpha Fusion plate reader. A plot of counts per minute versus log concentration of compounds was fitted to a sigmoidal dose response curve using Graphpad Prism software to generate IC50 values.

[2] = target: T2, human IGF1R kinase domain (Homo sapiens, UniProt P08069); test: IGF1R tyrosine phosphorylation inhibition, Alphascreen phosphotyrosine PT66 assay; format: biochemical; settings: recombinant kinase domain, 1 hour co-incubation, 20 to 0.1 μM
T2 construct: human IGF1R precursor protein corresponding to the amino acids positions 974 through 1293; 6xHis; made in house; host or cells: SF9 insect cells, recombinant baculovirus (Bac-to-Bac System)
Experimental: Inhibition of IGF1R tyrosine phosphorylation was measured in the Alphascreen phosphotyrosine PT66 assay kit (Perkin Elmer Life sciences, Catalog number 6760602) according to the manufacturer's instructions. As a source of enzymatically active IGF1r kinase for this assay, SF9 insect cells were infected with recombinant baculovirus (Bac-to-Bac System, Invitrogen, Carlsbad, Calif.) encoding 6×His-tagged kinase domain portion of human IGF1R precursor protein corresponding to the amino acids positions 974 through 1293 (Abbott et al., 1992, J. Biol. Chem. 267:10759-10763) and recombinant kinase protein was purified to homogeneity using two-step chromatography on immobilized Ni^2+ resin (Ni-NTA) and ion-exchange Q-Sepharose column. Biotinylated poly glu-tyr 4:1 (CIS bio-international, catalog number 61GT0BLA) was used for the kinase substrate. Compounds were serially diluted to give a concentration range from 20 to 0.1 μM and co-incubated with IGF1r kinase, biotinylated peptide substrate and alphascreen components for 1 hour and then read in a Perkin-Elmer alphafusion plate reader. A plot of counts per minute versus log concentration of compounds was fitted to a sigmoidal dose response curve using Graphpad Prism software to generate IC50 values (see FIG. 1 for an example).

[3] = tested on: MCF7 human breast tumor cells; test: CellTiter-Glo luminescent cell viability assay, MCF7; format: cell-based; settings: 48 hours, 20 to 0.1 μM
Experimental: Cell viability of either MCF7 human breast tumor cells (American Type Culture Collection catalog #HTB 22) or NCI-H929 human plasmacytoma cells (ATCC catalog #CRL-9068) was assessed using the Promega CellTiter-Glo luminescent cell viability assay according to manufacturer's instructions. In brief, cells were plated at 10,000 cells per well in a clear bottom white 96 well microtiter plate (Costar catalog #3604) in 100 μL of cell growth medium. Compounds were then added to the cells to give final concentrations of compound ranging from 20 to 0.1 μM. Cells were incubated 48 hours after which 100 μL per well of celltiter-glo reagent was added and luminescence was measured in a BMG polarstar plate luminometer. A plot of counts per minute versus log concentration of compounds was fitted to a sigmoidal dose response curve using Graphpad Prism software to generate IC50 values.

T1 sequence (P04629 510-781 limits assumed): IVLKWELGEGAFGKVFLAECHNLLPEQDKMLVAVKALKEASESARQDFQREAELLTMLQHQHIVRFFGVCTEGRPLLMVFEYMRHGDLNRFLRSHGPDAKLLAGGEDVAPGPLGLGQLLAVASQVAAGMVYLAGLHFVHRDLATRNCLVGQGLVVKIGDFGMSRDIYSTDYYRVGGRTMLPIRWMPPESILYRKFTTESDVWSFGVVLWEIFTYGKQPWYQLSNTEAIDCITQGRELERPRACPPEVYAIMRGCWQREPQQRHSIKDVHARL
T2 sequence (P08069 974-1293): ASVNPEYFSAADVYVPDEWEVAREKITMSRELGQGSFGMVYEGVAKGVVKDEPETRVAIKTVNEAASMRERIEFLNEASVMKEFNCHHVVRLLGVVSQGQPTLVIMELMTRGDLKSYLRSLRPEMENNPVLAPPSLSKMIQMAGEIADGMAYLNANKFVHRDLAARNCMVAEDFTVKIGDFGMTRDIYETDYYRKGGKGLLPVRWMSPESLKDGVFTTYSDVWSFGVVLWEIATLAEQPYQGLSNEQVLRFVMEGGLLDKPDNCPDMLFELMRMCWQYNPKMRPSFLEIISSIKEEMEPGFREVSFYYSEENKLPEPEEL

Compound | IC50 [1] | IC50 [2] | IC50 [3]
COc1ncccc1-c1ccc(O)c(-c2nc3ccc(C(=O)NCC4CCN(Cc5ccccc5)C4)cc3[nH]2)c1 (stereo not shown) | 20 to 200 nM |  | 
COc1ncccc1-c1ccc(O)c(-c2nc3ccc(C(=O)Nc4ccc(CCN5CCN(c6ccncc6)CC5)cc4)cc3[nH]2)c1 | 20 to 200 nM |  | 
CN1CCN(CCc2ccc(NC(=O)c3ccc4nc(-c5cc(-c6cccnc6O)ccc5O)[nH]c4c3)cc2)CC1 | 20 to 200 nM |  | 
COc1ncccc1-c1ccc(O)c(-c2nc3ccc(C(=O)NCCCCN4CCCC4)cc3[nH]2)c1 [drawing 1807] | > 200 nM |  | 
COc1ncccc1-c1ccc(O)c(-c2nc3ccc(C(=O)NCc4ccc5c(c4)CCCN5C)cc3[nH]2)c1 | > 200 nM |  | 
COc1ncccc1-c1ccc(O)c(-c2nc3ccc(C(=O)NCCCN4CCN(C)CC4)cc3[nH]2)c1 | > 200 nM |  | 
COc1ncccc1-c1ccc(O)c(-c2nc3ccc(C(=O)NCCCCCN(C)C)cc3[nH]2)c1 | > 200 nM |  | 
COc1ncccc1-c1ccc(O)c(-c2nc3ccc(C(=O)NCCC4CCCN4C)cc3[nH]2)c1 (stereo not shown) | 20 to 200 nM |  | 
COc1ncccc1-c1ccc(O)c(-c2nc3ccc(C(=O)NCCCN4CCCCC4C)cc3[nH]2)c1 (stereo not shown) | < 20 nM |  | 
COc1cc(O)c(-c2nc3ccc(C(=O)NCCc4c[nH]cn4)cc3[nH]2)cc1-c1cccnc1OC | 20 to 200 nM |  | 
CN1CCN(CCc2ccc(NC(=O)c3cc4nc(-c5cc(-c6cccnc6O)ccc5O)[nH]c4cc3Cl)cc2)CC1 | 20 to 200 nM |  | 
COc1ncccc1-c1ccc(O)c(-c2nc3ccc(C(=O)Nc4ccc(OCCN5CCN(C)CC5)cc4)cc3[nH]2)c1 | > 200 nM |  | 
COc1ncccc1-c1ccc(O)c(-c2nc3cc(C(=O)N[C@@H](CO)Cc4c[nH]cn4)ccc3[nH]2)c1 | < 20 nM |  | 
COC(=O)[C@H](Cc1c[nH]cn1)NC(=O)c1ccc2[nH]c(-c3cc(-c4cccnc4OC)ccc3O)nc2c1 | 20 to 200 nM |  | 
COc1ncccc1-c1ccc(O)c(-c2nc3cc(C(=O)N[C@@H](Cc4c[nH]cn4)C(N)=O)ccc3[nH]2)c1 | < 20 nM |  | 
COc1ncccc1-c1ccc(O)c(-c2nc3ccc(C(=O)NCCc4c[nH]cn4)cc3[nH]2)c1 | 20 to 200 nM |  | 

Compound | IC50 [1] | IC50 [2] | IC50 [3]
CCN(CC)CCCNC(=O)c1ccc2nc(-c3cc(-c4cccnc4OC)ccc3O)[nH]c2c1 | < 20 nM |  | 
O=C(NCCc1c[nH]cn1)c1cc2nc(-c3cc(-c4cccnc4O)ccc3O)[nH]c2cc1Cl | < 20 nM |  | 
COc1ncccc1-c1ccc(O)c(-c2nc3cc(C(=O)NCc4ccc(CN5CCN(C)CC5)cc4)ccc3[nH]2)c1 | > 200 nM |  | 
COc1ncccc1-c1ccc(O)c(-c2nc3ccc(C(=O)Nc4ccc(OCCCN5CCN(C)CC5)cc4)cc3[nH]2)c1 | > 200 nM |  | 
COCCN1CCC(CNC(=O)c2ccc3nc(-c4cc(-c5cccnc5OC)ccc4O)[nH]c3c2)C1 (stereo not shown) | 20 to 200 nM |  | 
COc1ncccc1-c1ccc(O)c(-c2nc3ccc(C(=O)NCCCCN4CCCC4)cc3[nH]2)c1 [drawing 1800] | < 20 nM |  | 
CN1CCCC2(CCCN(CCc3ccc(NC(=O)c4ccc5nc(-c6cc(-c7cccnc7O)ccc6O)[nH]c5c4)cc3)C2)C1 (stereo not shown) [drawing 1793] | > 200 nM |  | 
COc1ncccc1-c1ccc(O)c(-c2nc3cc(C(=O)N[C@@H](C)Cc4c[nH]cn4)ccc3[nH]2)c1 | > 200 nM |  | 
COc1ncccc1-c1ccc(O)c(-c2nc3cc(C(=O)N[C@H](CO)Cc4c[nH]cn4)ccc3[nH]2)c1 | < 20 nM |  | 
COc1ncccc1-c1ccc(O)c(-c2nc3ccc(C(=O)NCC4CCN(CCO)CC4)cc3[nH]2)c1 | < 20 nM |  | 
CCN1CCC2(CCN(CCc3ccc(NC(=O)c4ccc5[nH]c(-c6cc(-c7cccnc7O)ccc6O)nc5c4)cc3)C2)C1 (stereo not shown) [drawing 1792] | < 20 nM |  | 
COc1ccc2c(c1)CCc1cnc(-n3cc(C(=O)Nc4ccc(CCN5CCC(N)CC5)cc4)c(N)n3)nc1-2 |  | ≤ 5000 nM | > 25000 nM
COc1ncccc1-c1ccc(O)c(-c2nc3ccc(C(=O)NCC4CCCC(CN)C4)cc3[nH]2)c1 (stereo not shown) | > 200 nM |  | 
CN1CCN(Cc2ccc(NC(=O)c3ccc4[nH]c(-c5cc(Br)ccc5O)nc4c3)cc2)CC1 |  | ≤ 5000 nM | 10000 to 15000 nM
COc1ncccc1-c1ccc(O)c(-c2nc3cc(C(=O)NCCc4c[nH]cn4)c(F)cc3[nH]2)c1 | < 20 nM |  | 
COc1ncccc1-c1ccc(O)c(-c2nc3ccc(C(=O)NC4CCCC(N)C4)cc3[nH]2)c1 (stereo not shown) | > 200 nM |  | 
